Laboratory results as given in the NIST ThermoML archive (doi:10.1016/j.fluid.2018.01.025).

Assays:
[1] = xn = mol fraction of the nth substance listed; conditions: 101 kPa, Liquid; for speed of sound: Frequency=2 MHz, Linear variable-path acoustic interferometer; for mass density: Vibrating tube method
[2] = 101.33 kPa, Liquid; for speed of sound: Frequency=2 MHz, Linear variable-path acoustic interferometer; for mass density: Vibrating tube method

CN(C)c1ccccc1 [N,N-dimethylaniline] + OCc1ccccc1
[1]
Conditions | mass density, 303.15 K [kg/m3] | mass density, 308.15 K [kg/m3] | mass density, 313.15 K [kg/m3] | mass density, 318.15 K [kg/m3] | mass density, 323.15 K [kg/m3] | speed of sound, 303.15 K [m/s] | speed of sound, 313.15 K [m/s]
x2 = 0.12 | 957.18 | 952.61 | 948.78 | 944.35 | 940.48 | 1475.2 | 1438
x2 = 0.2348 | 966.14 | 961.64 | 957.75 | 953.35 | 949.47 | 1480.2 | 1443.8
x2 = 0.3447 | 974.99 | 970.58 | 966.64 | 962.3 | 958.43 | 1484.8 | 1449.3
x2 = 0.4501 | 983.81 | 979.48 | 975.5 | 971.22 | 967.35 | 1489.2 | 1454.8
x2 = 0.5511 | 992.59 | 988.35 | 984.36 | 980.15 | 976.28 | 1493.5 | 1460.3
x2 = 0.6481 | 1001.4 | 997.24 | 993.26 | 989.1 | 985.25 | 1497.6 | 1465.7
x2 = 0.7412 | 1010.24 | 1006.19 | 1002.16 | 998.09 | 994.24 | 1501.5 | 1471.1
x2 = 0.8308 | 1019.15 | 1015.2 | 1011.16 | 1007.16 | 1003.34 | 1505.1 | 1476.4
x2 = 0.917 | 1028.12 | 1024.28 | 1020.19 | 1016.31 | 1012.49 | 1508.5 | 1481.7

CNc1ccccc1 [N-methylaniline]
[2]
Conditions | mass density [kg/m3] | speed of sound [m/s]
303.15 K | 981.72 | 1549
308.15 K | 976.04 | –
313.15 K | 970.89 | 1511
318.15 K | 965.81 | –
323.15 K | 961.13 | –

CNc1ccccc1 [N-methylaniline] + OCc1ccccc1
[1]
Conditions | mass density, 303.15 K [kg/m3] | mass density, 308.15 K [kg/m3] | mass density, 313.15 K [kg/m3] | mass density, 318.15 K [kg/m3] | mass density, 323.15 K [kg/m3] | speed of sound, 303.15 K [m/s] | speed of sound, 313.15 K [m/s]
x2 = 0.1044 | 987.67 | 980.39 | 976.87 | 971.88 | 967.24 | 1545 | 1507.9
x2 = 0.2078 | 993.53 | 986.48 | 982.82 | 977.93 | 973.34 | 1540.9 | 1505.2
x2 = 0.3102 | 999.29 | 992.49 | 988.73 | 983.96 | 979.41 | 1537.1 | 1502.6
x2 = 0.4116 | 1004.92 | 998.45 | 994.6 | 989.97 | 985.5 | 1533.3 | 1500.1
x2 = 0.512 | 1010.45 | 1004.34 | 1000.43 | 995.91 | 991.54 | 1529.6 | 1497.7
x2 = 0.6115 | 1015.9 | 1010.22 | 1006.25 | 1001.87 | 997.59 | 1526.1 | 1495.3
x2 = 0.71 | 1021.26 | 1016.06 | 1012.02 | 1007.8 | 1003.64 | 1522.5 | 1493
x2 = 0.8076 | 1026.57 | 1021.85 | 1017.82 | 1013.73 | 1009.68 | 1518.8 | 1490.8
x2 = 0.9042 | 1031.88 | 1027.64 | 1023.58 | 1019.63 | 1015.72 | 1515.3 | 1488.7

Nc1ccccc1 [aniline]
[2]
Conditions | mass density [kg/m3] | speed of sound [m/s]
303.15 K | 1012.78 | 1615
308.15 K | 1008.64 | –
313.15 K | 1004.49 | 1578
318.15 K | 1000.36 | –
323.15 K | 996.43 | –

Nc1ccccc1 [aniline] + OCc1ccccc1
[1]
Conditions | mass density, 303.15 K [kg/m3] | mass density, 308.15 K [kg/m3] | mass density, 313.15 K [kg/m3] | mass density, 318.15 K [kg/m3] | mass density, 323.15 K [kg/m3] | speed of sound, 303.15 K [m/s] | speed of sound, 313.15 K [m/s]
x2 = 0.0895 | 1015.86 | 1011.46 | 1007.17 | 1003.04 | 999.07 | 1605.7 | 1570.1
x2 = 0.181 | 1018.68 | 1014.15 | 1009.79 | 1005.68 | 1001.68 | 1596.1 | 1561.9
x2 = 0.2748 | 1021.37 | 1016.76 | 1012.36 | 1008.28 | 1004.27 | 1586.4 | 1553.5
x2 = 0.3709 | 1023.88 | 1019.29 | 1014.9 | 1010.83 | 1006.82 | 1576.5 | 1544.9
x2 = 0.4693 | 1026.28 | 1021.76 | 1017.36 | 1013.33 | 1009.35 | 1566.6 | 1536
x2 = 0.5701 | 1028.61 | 1024.17 | 1019.82 | 1015.83 | 1011.87 | 1556.3 | 1526.9
x2 = 0.6735 | 1030.85 | 1026.55 | 1022.24 | 1018.31 | 1014.35 | 1545.9 | 1517.5
x2 = 0.7796 | 1033.02 | 1028.88 | 1024.64 | 1020.74 | 1016.84 | 1535.2 | 1507.8
x2 = 0.8884 | 1035.14 | 1031.18 | 1027.03 | 1023.15 | 1019.33 | 1523.9 | 1497.7

OCc1ccccc1 [benzenemethanol]
[2]
Conditions | mass density [kg/m3] | speed of sound [m/s]
303.15 K | 1037.18 | 1512
308.15 K | 1033.45 | –
313.15 K | 1029.36 | 1487
318.15 K | 1025.57 | –
323.15 K | 1021.78 | –
